Drawing on ChEMBL document CHEMBL1649167, “Serial plasma voriconazole concentrations after allogeneic hematopoietic stem cell transplantation” (Antimicrob Agents Chemother, 2009), this text covers concentration for one compound.

A short description of the data set: Plasma concentration in po dosed patient after 6 days by HPLC analysis. It is filed as ADME, organism-based. The settings on record: human.

Some results are limits rather than exact numbers.

`C[C@@H](c1ncncc1F)[C@](O)(Cn1cncn1)c1ccc(F)cc1F` [VORICONAZOLE] returned a concentration at 144 h of under 120 ng/mL.
